In patent US20020082193A1, “Inhibition of mitochondrial calcium/sodium antiporter” (priority 2000, published 2002):
Read-outs that look alike come from different tables or passages of the source.

Experiments:
[1] = target: T1, mitochondrial Na+/Ca2+ exchanger (Rattus norvegicus, UniProt Q6AXS0); experiment: Na+-induced Ca2+ release from rat heart mitochondria, Ca2+-selective electrode; assay type: biochemical; settings: 20 μM compound
T1 construct: Rat heart mitochondria were isolated using a modified differential centrifugation protocol; from tissue; host or cells: rat heart mitochondria
T1 sequence (Q6AXS0 27-585): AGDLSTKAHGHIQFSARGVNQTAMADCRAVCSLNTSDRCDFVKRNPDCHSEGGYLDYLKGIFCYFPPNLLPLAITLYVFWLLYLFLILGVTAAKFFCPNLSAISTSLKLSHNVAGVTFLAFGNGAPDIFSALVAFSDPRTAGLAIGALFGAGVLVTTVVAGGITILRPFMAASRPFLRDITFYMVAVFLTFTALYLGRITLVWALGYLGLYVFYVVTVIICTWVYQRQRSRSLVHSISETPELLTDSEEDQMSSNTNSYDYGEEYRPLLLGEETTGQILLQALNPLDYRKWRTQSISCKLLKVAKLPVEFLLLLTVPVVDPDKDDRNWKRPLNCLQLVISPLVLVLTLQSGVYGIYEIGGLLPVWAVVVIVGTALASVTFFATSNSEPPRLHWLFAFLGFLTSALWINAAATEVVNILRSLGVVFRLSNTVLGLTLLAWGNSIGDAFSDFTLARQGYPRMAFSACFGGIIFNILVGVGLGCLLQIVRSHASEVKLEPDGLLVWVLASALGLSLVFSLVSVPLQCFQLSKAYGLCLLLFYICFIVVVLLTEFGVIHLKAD
Method: (§1) Rat heart mitochondria were isolated using a modified differential centrifugation protocol essentially as described by Sordahl (Methods in Studying Cardiac Membranes (1984), pp 65-74). Experiments to assess effects on transmitochondrial membrane transport of calcium were carried out at 25° C. in a buffer consisting of 250 mM sucrose, 10 mM HEPES (pH 7.4), 5 mM Pi, 5 mM succinate, 1 μM rotenone, supplemented with 1 μM cyclosporine A to prevent interference from the Ca^2+-dependent permeability transition pore (PTP). Ca^2+ uptake and release were measured using a Ca^2+-selective electrode in a custom-constructed chamber additionally equipped for monitoring mitochondrial swelling via changes in light scattering (World Precision Instruments, Inc., Sarasota, Fla.). Alternatively, Ca^2+ fluxes were followed fluorometrically using the Calcium Green 5N™ indicator according to the supplier's recommendations (Molecular Probes, Eugene, Oreg.).
(§2) Mitochondria (0.5 mg/ml) that were energized by the presence of succinate accumulated endogenous Ca^2+ from the medium (trace calcium from water source). Additional Ca^2+ (20 μM ) was added to the reaction buffer 2-3 minutes following commencement of measurements with the calcium electrode. […] No PTP activation (swelling) was detected under experimental conditions used.

[2] = tested on: rat pancreatic islet cells; experiment: Insulin secretion by rat pancreatic islet cells, 5 mM or 8 mM glucose (FIG. 3); assay type: cell-based; settings: various concentrations
[3] = tested on: mitochondrial calcium/sodium antiporter (MCA) from beef heart mitochondria; experiment: Sodium-calcium exchange in proteoliposomes reconstituted with affinity isolated MCA; assay type: biochemical; settings: 100 μM calcium chloride, FIG. 8
Method: From a separate preparation of beef heart mitochondria, affinity isolation of the MCA was performed as just described, except that 1% CHAPS was substituted for 1% Triton X-100 in the initial solubilization, and following the column wash steps, retained components (including proteins bound to the affinity matrix) were eluted with 50 mM diltiazem. The column eluate containing proteins was incorporated into proteoliposomes essentially as described by Li et al (1992 J. Biol. Chem. 267: 17983-17989), using Calcium Green SN as the internal fluorescent probe (Molecular Probes, Eugene, OR), and calcium transport activity of the MCA was measured essentially as described by Li et al. (1992). Briefly, calcium chloride (100 μM) was added to a suspension of Calcium Green 5N-loaded proteoliposomes to initiate sodium-calcium exchange, which was measured as an increase in fluorescence as the calcium entered the vesicles that contained Calcium Green 5N. […] Data points in FIG. 8 represent average values at each concentration from two independent experiments.

[4] = tested on: pancreatic islets of Langerhans; experiment: Glucose-stimulated insulin secretion (GSIS) by isolated rat islets, insulin ELISA; assay type: cell-based, Sprague-Dawley rats; settings: 1 μM compound
Method: Pancreatic islets of Langerhans were isolated from adult male Sprague-Dawley rats using a standard collagenase infusion and digestion procedure as described in Example 5. Islets were cultured at 37° C. for 1-2 days in CMRL-1066 medium supplemented with 5.5 mM glucose, 10% fetal bovine serum, 100 U/ml penicillin and 100 μg/ml streptomycin, in a humidified atmosphere containing 5% CO2. Islets were manually picked and washed in Krebs Ringer Bicarbonate buffer (KRB: 134 mM NaCl, 4.7 mM KCl, 1.2 mM KH2PO4, 1.2 mM MgSO4, 1 mM CaCl2, 10 mM NaHCO3, pH 7.4) in preparation for measurement of glucose-stimulated insulin secretion (GSIS). Aliquots of washed islets were preincubated in oxygenated KRB supplemented with 16 mM HEPES, 0.01% fetal bovine serum and 5.5 mM glucose for 60 min at 37° C. […] Cell-conditioned media samples were then collected by centrifugation and their insulin content was determined using enzyme-linked immunosorbent assay (ELISA) kits (CrystalChem or ALPCO rat insulin ELISA) according to the kit supplier's instructions. Following treatment with a preferred compound, the concentration of insulin detected in the islet-conditioned medium was at least 1.5 times the insulin concentration detected in the medium conditioned by islets that were exposed to 8 mM glucose. […]

[5] = tested on: INS-1 rat insulinoma cells; experiment: Insulin secretion by INS-1 cells, basal or 8 mM glucose (radioimmunoassay); assay type: cell-based; settings: 15, 30 or 60 minutes, FIG. 2
Method: INS-1 rat insulinoma cells were provided by Prof. Claes Wollheim, , Geneva, Switzerland, and cultured at 37° C. in a humidified […] (Gibco BRL, Gaithersburg, Md.) fetal bovine serum (Irvine Scientific, Irvine, Calif.), 2 mM […], 100 U/ml streptomycin, 10 mM HEPES, 1 mM sodium pyruvate and 50 μM β-mercaptoethanol (all reagents Sigma, St. Louis, Mo., unless otherwise noted).
INS-1 cells were seeded into 24-well plates containing RPMI media supplemented at 0.5×10^6 cells/well and cultured at 37° C., 5% CO2 for 2 days. Cells at or near confluence (0.7×10^6cells/well) were rinsed with glucose-free KRH buffer (134 mM NaCl, 4.7 mM KCl, 1.2 mM KH2PO4, 1.2 mM MgSO4, 1.0 mM CaCl2, 10 mM HEPES-ph 7.4, 25 mM NaHCO3, 0.5% BSA), then incubated in the same buffer for 1 hr at 37° C. in a humidified 5% CO2/95% air atmosphere. […] Insulin concentrations in the supernatants were measured and normalized to cell number using an insulin-specific radioimmunoassay kit (ICN Biochemicals, Irvine, Calif.) according to the manufacturer's instructions. […]

[6] = target: T1, mitochondrial Na+/Ca2+ exchanger; experiment: Na+-induced Ca2+ release from mitochondria, Calcium Green 5N fluorescence; assay type: biochemical
Method: as §1, §2

[7] = target: T2, mitochondrial calcium/sodium antiporter (Rattus norvegicus, UniProt Q6AXS0); experiment: Inhibition of mitochondrial calcium/sodium antiporter activity in digitonin-permeabilized INS-1 cells (calcium green 5N); assay type: cell-based
T2 construct: endogenous in cells; host or cells: INS-1 rat insulinoma cells, digitonin-permeabilized
T2 sequence (Q6AXS0 27-585): T1 sequence (Q6AXS0 27-585)
Method: INS-1 rat insulinoma cells (see Example 3) were harvested by trypsinization, washed and resuspended at 10×10^6 cells/ml in assay buffer (250 mM sucrose, 10 mM HEPES, 2.5 mM K2HPO4, 5 mM succinate, pH 7.4) containing 0.007% digitonin, 60 μM CaCl2 and 0.05 μM calcium green 5N (Molecular Probes, Inc., Eugene, OR). After a five minute calcium loading incubation, ruthenium red (1 μM; Sigma, St. Louis, MO) was added to block further calcium uptake by mitochondria. Cell suspensions were dispensed into 96-well plates (100 μl per well, 1×10^6 cells per well) and candidate agents (i.e., candidate mitochondrial calcium/sodium antiporter inhibitors) were added to some sets of triplicate wells at concentrations of 1, 10 or 100 μM, while other sets of wells provided appropriate control conditions (e.g., buffer and vehicle controls). Baseline fluorescence measurements were made using a multiwell plate fluorimeter (F-MAX™, Molecular Devices Corp., Sunnyvale, Calif.; or PolarStar , BMG Labtechnologies, Inc., Durham, N.C.) according to the manufacturer's instructions. Calcium efflux from mitochondria was then induced by adding NaCl to all wells to achieve a final concentration of 20 mM, and the rate of change in fluorescence in each well was monitored was monitored for two minutes and quantified using software included with the plate reader.

Which inhibition at 20 µM [1] does the source give for `O=C1CSC(c2ccccc2Cl)c2cc(Cl)ccc2N1` (stereo not drawn) [Compound No. 1, 7-chloro-5-(2-chlorophenyl)-1,5-dihydro-4,1-benzothiazepin-2-one] here?
The inhibition at 20 µM was ~50%.

What about the “inhibition of Na+-induced rapid Ca2+ release” value ([1]; FIG. 4) of the same compound?
The value was “inhibited completely”.

And the “glucose stimulated insulin secretion by rat islets” value [2]?
Its value is “enhancement”.

And the “inhibition of sodium-calcium exchange activity” value [3]?
The value was “inhibited in a dose-dependent fashion”.

What about the “stimulation of GSIS relative to GSIS detected with 8 mM glucose” value [4] of the same compound?
Its value is 222 (±48) %.

What about the “glucose stimulated insulin secretion by INS-1 cells” value [5] of the same compound?
The value was “enhanced”.

`O=C(O)CN1C(=O)CSC(c2ccccc2Cl)c2cc(Cl)ccc21` (stereo not drawn) [Compound No. 2] was tested. Which “concentrations at which inhibition was observed” value [6] did it give?
The value was ≥ 100 µM.

Which results are given for `O=C1C[S+]([O-])C(c2ccccc2Cl)c2cc(Cl)ccc2N1` (stereo not drawn) [Compound No. 24]?
stimulation of GSIS relative to GSIS detected with 8 mM glucose [4]: 178%; IC50 ([7]; permeabilized INS-1 cells, 20 mM NaCl-induced calcium efflux, read-out: IC50, MCA inhibition): < 100 µM

Which IC50 [7] does the source give for `Cc1ccccc1C1OCC(=O)Nc2ccc(Cl)cc21` (stereo not drawn) [compound 10] here?
The IC50 was < 100 µM.

How did the IC50 [7] turn out when `Cc1ccc(C2SCC(=O)Nc3ccc(Cl)cc32)c(C)c1` (stereo not drawn) [compound 21] was run?
Its IC50 is < 100 µM.

With `O=C1CSC(c2ccccc2Cl)c2ccccc2N1` (stereo not drawn) [compound 23] as the compound, how does the IC50 [7] read?
Its IC50 is < 100 µM.
